This is an account of results in article PMC8035174, “The Pseudomonas aeruginosa substrate-binding protein Ttg2D functions as a general glycerophospholipid transporter across the periplasm” (Communications Biology, 2021).

≈ marks a conversion by molar mass, not a printed value.

In the assay the test system is T1, Pseudomonas aeruginosa PAO1.
T1 construct: PAO1
Description: microbe, parasite or virus in culture. The following applies: PAO1, 20 h, read-out: MIC PAO1. Details: broth microdilution MIC in cation-adjusted Mueller-Hinton broth, visual growth or resazurin. The method, then: Analysis of antimicrobial susceptibilities. […] The BMD method was performed on cation adjusted MH broth (CAMHB) as recommended 41, 42 . Bacteria were first grown overnight in CAMHB using CLSI-recommended incubation conditions and the antibiotics were serially diluted twofold across the 96 well plates. After that, 100 µl of a bacterial suspension diluted to 5x10^5 CFU/ml in CAMHB was added to the wells containing the antibiotic dilutions. The 96-well plates were incubated for 20 h at 37°C before developing by visual inspection or with the resazurin dye 43 . MIC was defined as the lowest concentration of the antibiotic (in μg/ml) that prevented visual growth. As the LESB58 isolate is considered a slower growing strain compared to laboratory strain PAO1 44, incubation for bacterial growth was extended to 48 h instead of 24 h for some protocols. […] For Etest a 0.5 McFarland suspension was used to create a confluent lawn of microbial growth in 150-mm Mueller-Hinton (MH) agar plates. The MIC values were determined according to the Etest reading guide after 18 h incubation at 37°C. MICs were determined as the concentration at which the zone of inhibition intersected the Etest strip.
`CC1(C)S[C@@H]2[C@H](NC(=O)[C@H](C(=O)O)c3ccsc3)C(=O)N2[C@H]1C(=O)O` [Ticarcillin]: the MIC was 16 µg/mL (≈ 41.6 µM).

For `CN[C@@H]1[C@H](O[C@H]2[C@H](O[C@H]3[C@H](O)[C@@H](O)[C@H](N=C(N)N)[C@@H](O)[C@@H]3N=C(N)N)O[C@@H](C)[C@]2(O)C=O)O[C@@H](CO)[C@H](O)[C@H]1O` [Streptomycin], the MIC was 8 µg/mL (≈ 13.8 µM).

On to `CN(C)c1cc(NC(=O)CNC(C)(C)C)c(O)c2c1C[C@H]1C[C@H]3[C@H](N(C)C)C(O)=C(C(N)=O)C(=O)[C@@]3(O)C(O)=C1C2=O` [Tigecycline], for which the MIC is 32 µg/mL (≈ 54.6 µM).

In the case of `CCN1CCN(C(=O)N[C@@H](C(=O)N[C@@H]2C(=O)N3[C@@H]2SC(C)(C)[C@@H]3C(=O)O)c2ccccc2)C(=O)C1=O` [Piperacillin], the MIC was 2 µg/mL (≈ 3.86 µM).

Turning to `CCn1cc(C(=O)O)c(=O)c2cc(F)c(N3CCNCC3)cc21` [Norfloxacin], the MIC was determined as 4 µg/mL (≈ 12.5 µM).

Take `C[C@@H](O)[C@H]1C(=O)N2C(C(=O)O)=C(S[C@@H]3CN[C@H](C(=O)N(C)C)C3)[C@H](C)[C@H]12` [Meropenem]: the MIC amounted to 1 µg/mL (≈ 2.61 µM).

As for `CC1COc2c(N3CCN(C)CC3)c(F)cc3c(=O)c(C(=O)O)cn1c23` (stereo not shown) [Ofloxacin], the MIC came to 8 µg/mL (≈ 22.1 µM).

On to `C[C@@H](O)[C@H]1C(=O)N2C(C(=O)O)=C(SCCNC=N)C[C@H]12` [Imipenem], for which the MIC was 4 µg/mL (≈ 13.4 µM).

`CN(C)c1ccc(O)c2c1C[C@H]1C[C@H]3[C@H](N(C)C)C(O)=C(C(N)=O)C(=O)[C@@]3(O)C(O)=C1C2=O` [Minocycline]: the MIC is 32 µg/mL (≈ 69.9 µM).

For `CC(C)(O/N=C(\C(=O)N[C@@H]1C(=O)N2C(C(=O)[O-])=C(C[n+]3ccccc3)CS[C@H]12)c1csc(N)n1)C(=O)O` [Ceftazidime], the MIC is 1 µg/mL (≈ 1.83 µM).

As for `O=C(N[C@H](CO)[C@H](O)c1ccc([N+](=O)[O-])cc1)C(Cl)Cl` [Chloramphenicol], the MIC was greater than 256 µg/mL.

`NCC[C@H](O)C(=O)N[C@@H]1C[C@H](N)[C@@H](O[C@H]2O[C@H](CN)[C@@H](O)[C@H](O)[C@H]2O)[C@H](O)[C@H]1O[C@H]1O[C@H](CO)[C@@H](O)[C@H](N)[C@H]1O` [Amikacin]: the MIC turned out to be 2 µg/mL (≈ 3.42 µM).

Turning to `C[C@H]1COc2c(N3CCN(C)CC3)c(F)cc3c(=O)c(C(=O)O)cn1c23` [Levofloxacin], the MIC is 4 µg/mL (≈ 11.1 µM).
